Source: patent US10005767B2, “Compositions and methods for inhibition of the JAK pathway” (Rigel Pharmaceuticals, Inc., priority 2009, dated 2018)

What follows are compounds tested on human primary T-cells, IL-2 stimulated proliferation (JAK-1 and JAK-3 dependent; reported as JAK3 activity) (assay: Human primary T-cell proliferation stimulated by IL-2 (Example 3)). Conditions: Homo sapiens, T-cell, tested under conditions described in Example 3 (IL-2 stimulated human primary T-cell proliferation); read-out: ability to inhibit JAK3 activity, IC50 range (Table V).
Format: cell-based
In short: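 Peripheral-blood human T-cells pre-activated via TCR/CD28, IL-2-starved overnight, then cultured 72 h at 37 °C with compound in Yssel's medium containing IL-2 (80 U/mL in cell suspension). Proliferation read as viable-cell ATP by CellTiter-Glo luminescence; reduction versus control taken as JAK pathway inhibition.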

Row | Structure (SMILES) | IC50 [nM]
1 | Cc1cnc(Nc2ccc(N3CCN(C(=O)OC(C)(C)C)CC3)nc2)nc1Nc1ccc2oc(=O)[nH]c2c1 [II-5, N4-(benzo[d]oxazol-2(3H)-on-5-yl)-N2-(6-(4-tert-butyloxycarbonylpiperazin-1-yl)pyridin-3-yl)-5-methylpyrimidine-2,4-diamine] | < 500
2 | Cc1ccc(C)c(Nc2ncc(C)c(Nc3ccc4oc(=O)[nH]c4c3)n2)c1 [Compound I-501, 5-(2-(2,5-dimethylphenylamino)-5-methylpyrimidin-4-ylamino)benzo[d]oxazol-2(3H)-one] | 500 to 5000
3 | Cc1cnc(Nc2ccc(C(=O)N3CCNCC3)nc2)nc1Nc1ccc2oc(=O)[nH]c2c1 [II-45, 5-{5-Methyl-2-[6-(piperazine-1-carbonyl)-pyridin-3-ylamino]-pyrimidin-4-ylamino}-3H-benzooxazol-2-one] | < 500
4 | CCN(CC)C1CCN(c2ccc(Nc3ncc(C)c(Nc4ccc5oc(=O)[nH]c5c4)n3)cn2)C1 (stereo not shown) [II-82, 5-(2-(6-(3-(diethylamino)pyrrolidin-1-yl)pyridin-3-ylamino)-5-methylpyrimidin-4-ylamino)benzo[d]oxazol-2(3H)-one] | < 500
5 | Cc1cnc(Nc2ccc(N3CCOCC3)nc2)nc1Nc1cc(F)c2oc(=O)[nH]c2c1 [II-76, 7-fluoro-5-(5-methyl-2-(6-morpholinopyridin-3-ylamino)pyrimidin-4-ylamino)benzo[d]oxazol-2(3H)-one] | < 500
6 | Cc1cnc(Nc2ccc3c(c2)CN(S(C)(=O)=O)C3)nc1Nc1ccc2oc(=O)[nH]c2c1 [III-14, 5-[2-(2-Methanesulfonyl-2,3-dihydro-1H-isoindol-5-ylamino)-5-methyl-pyrimidin-4-ylamino]-3H-benzooxazol-2-one] | < 500
7 | COc1cc(Nc2ncc(C)c(Nc3ccc4oc(=O)[nH]c4c3)n2)cc(C(=O)N(C)C)c1 [Compound I-252, 3-methoxy-N,N-dimethyl-5-(5-methyl-4-(2-oxo-2,3-dihydrobenzo[d]oxazol-5-ylamino)pyrimidin-2-ylamino)benzamide] | < 500
8 | Cc1cnc(Nc2ccc(C(N)=O)cc2)nc1Nc1ccc2oc(=O)[nH]c2c1 [Compound I-3, N4-(benzo[d]oxazol-2(3H)-on-5-yl)-N2-(4-aminocarbonylphenyl)-5-methylpyrimidine-2,4-diamine] | < 500
9 | Cc1cnc(Nc2ccc(OCCC(C)C)cc2)nc1Nc1ccc2oc(=O)[nH]c2c1 [Compound I-197, 5-{5-Methyl-2-[4-(3-methyl-butoxy)-phenylamino]-pyrimidin-4-ylamino}-3H-benzooxazol-2-one] | > 10000
10 | COc1ccc(Nc2ncc(C)c(Nc3ccc4oc(=O)[nH]c4c3)n2)cc1C(=O)N(C)C [Compound I-260, 2-methoxy-N,N-dimethyl-5-(5-methyl-4-(2-oxo-2,3-dihydrobenzo[d]oxazol-5-ylamino)pyrimidin-2-ylamino)benzamide] | < 500
11 | Cc1cc(Nc2ncc(C)c(Nc3ccc4oc(=O)[nH]c4c3)n2)ccc1C(=O)O [Compound I-170, 2-Methyl-4-[5-methyl-4-(2-oxo-2,3-dihydro-benzooxazol-5-ylamino)-pyrimidin-2-ylamino]-benzoic acid] | > 10000
12 | Cc1cnc(Nc2ccc(C(C)NCc3ccccc3)cc2)nc1Nc1ccc2oc(=O)[nH]c2c1 (stereo not shown) [Compound I-206, 5-(2-(4-(1-(benzylamino)ethyl)phenylamino)-5-methylpyrimidin-4-ylamino)benzo[d]oxazol-2(3H)-one] | < 500
13 | Cc1cnc(Nc2ccc3c(c2)CNC3)nc1Nc1ccc2oc(=O)[nH]c2c1 [III-1, N4-(benzo[d]oxazol-2(3H)-on-5-yl)-N2-(isoindolin-5-yl)-5-methylpyrimidine-2,4-diamine] | < 500

Same assay, conditions: tested under conditions described in Example 3 (IL-2 stimulated human primary T-cell proliferation); read-out: ability to inhibit JAK3 activity, IC50 range (Table V)

Row | Structure (SMILES) | IC50 [nM]
14 | Cc1cnc(Nc2ccc(N3CCOCC3)cc2)nc1Nc1ccc2oc(=O)[nH]c2c1 [Compound I-338, 5-methyl-N2-(4-morpholino)phenyl-N4-(2-oxo-2,3-dihydro-1,3-benzoxazol-5-yl)-2,4-pyrimidinediamine] | < 500
15 | Cc1cnc(Nc2ccc(F)c(F)c2)nc1Nc1ccc2oc(=O)[nH]c2c1 [Compound I-398, N2-(3,4-difluoro)phenyl-5-methyl-N4-(2-oxo-2,3-dihydro-1,3-benzoxazol-5-yl)-2,4-pyrimidinediamine] | < 500
16 | Cc1cnc(Nc2cccc(-c3cccnc3)c2)nc1Nc1ccc2oc(=O)[nH]c2c1 [Compound I-290, 5-methyl-N4-(2-oxo-2,3-dihydro-1,3-benzoxazol-5-yl)-N2-[3-(pyridin-3-yl)]phenyl-2,4-pyrimidinediamine] | < 500
17 | Cc1ccc(Nc2ncc(C)c(Nc3ccc4oc(=O)[nH]c4c3)n2)cc1S(N)(=O)=O [Compound I-24, N4-(benzo[d]oxazol-2(3H)-on-5-yl)-N2-((3-aminosulfonyl-4-methyl)phenyl)-5-methylpyrimidine-2,4-diamine] | < 500
18 | Cc1ccc(Nc2ncc(C)c(Nc3ccc4c(c3)oc(=O)n4C)n2)cc1NS(C)(=O)=O [Compound I-83, N2-((3-methylsulfonylamino-4-methyl)phenyl)-N4-(3-methyl-2-oxo-2,3-dihydrobenzo[d]oxazol-6-yl)-5-methylpyrimidine-2,4-diamine] | < 500
19 | COc1ccc(Nc2ncc(C)c(Nc3ccc4oc(=O)[nH]c4c3)n2)cc1C(F)(F)F [Compound I-297, N2-(4-methoxy-3-trifluoromethyl)phenyl-5-methyl-N4-(2-oxo-2,3-dihydro-1,3-benzoxazol-5-yl)-2,4-pyrimidinediamine] | < 500
20 | Cc1cnc(Nc2ccc(N3CCOC(C)C3)nc2)nc1Nc1ccc2oc(=O)[nH]c2c1 (stereo not drawn) [II-138, 5-methyl-N2-[2-(2S-methylmorpholino)pyridin-5-yl]-N4-(2-oxo-2,3-dihydro-1,3-benzoxazol-5-yl)-2,4-pyrimidinediamine] | < 500
21 | Cn1c(=O)oc2cc(Nc3nc(Nc4cccc(S(C)(=O)=O)c4)ncc3F)ccc21 [Compound I-59, N2-((3-methylsulfonyl)phenyl)-N4-(3-methyl-2-oxo-2,3-dihydrobenzo[d]oxazol-6-yl)-5-fluoropyrimidine-2,4-diamine] | < 500
22 | COCCOc1cc(Nc2ncc(C)c(Nc3ccc4oc(=O)[nH]c4c3)n2)ccc1OC [Compound I-292, N2-[4-methoxy-3-(2-methoxyethoxy)]phenyl-5-methyl-N4-(2-oxo-2,3-dihydro-1,3-benzoxazol-5-yl)-2,4-pyrimidinediamine] | < 500
23 | Cc1cnc(Nc2cccc(S(N)(=O)=O)c2)nc1Nc1ccc2[nH]c(=O)[nH]c2c1 [Compound I-11, N4-(benzimidazolin-2-on-5-yl)-N2-((3-aminosulfonyl)phenyl)-5-methylpyrimidine-2,4-diamine] | < 500
24 | CCOC(=O)N1CCN(c2ccc(Nc3ncc(C)c(Nc4ccc5oc(=O)[nH]c5c4)n3)cc2)CC1 [Compound I-344, N2-[4-(4-ethoxycarbonyl)piperazino]phenyl-5-methyl-N4-(2-oxo-2,3-dihydro-1,3-benzoxazol-5-yl)-2,4-pyrimidinediamine] | < 500
25 | Cc1cnc(Nc2cnc(N3CCN4CCC[C@H]4C3)c(C(F)(F)F)c2)nc1Nc1ccc2oc(=O)[nH]c2c1 [II-124, N2-[2-(S-1,4-diazabicylco[4.3.0]nonan-4-yl)-3-trifluoromethylpyridin-5-yl]-5-methyl-N4-(2-oxo-2,3-dihydro-1,3-benzoxazol-5-yl)-2,4-pyrimidinediamine] | < 500
